Results taken from ChEMBL document CHEMBL5252597, “Synthesis and biological evaluation of N-(3-fluorobenzyl)-4-(1-(methyl-d3)-1H-indazol-5-yl)-5-(6-methylpyridin-2-yl)-1H-imidazol-2-amine as a novel, potent ALK5 receptor inhibitor” (Bioorg Med Chem Lett, 2023).

Experiments:
Cytochrome P450 2C19 = Cytochrome P450 2C19 (Homo sapiens, UniProt P33261); experiment: Inhibition of CYP2C19 (unknown origin); type: ADME
Cytochrome P450 1A2 [1] = biological target: T1, Cytochrome P450 1A2 (Homo sapiens, UniProt P05177); experiment: Inhibition of CYP1A2 (unknown origin); type: ADME
T1 sequence (P05177 whole entry): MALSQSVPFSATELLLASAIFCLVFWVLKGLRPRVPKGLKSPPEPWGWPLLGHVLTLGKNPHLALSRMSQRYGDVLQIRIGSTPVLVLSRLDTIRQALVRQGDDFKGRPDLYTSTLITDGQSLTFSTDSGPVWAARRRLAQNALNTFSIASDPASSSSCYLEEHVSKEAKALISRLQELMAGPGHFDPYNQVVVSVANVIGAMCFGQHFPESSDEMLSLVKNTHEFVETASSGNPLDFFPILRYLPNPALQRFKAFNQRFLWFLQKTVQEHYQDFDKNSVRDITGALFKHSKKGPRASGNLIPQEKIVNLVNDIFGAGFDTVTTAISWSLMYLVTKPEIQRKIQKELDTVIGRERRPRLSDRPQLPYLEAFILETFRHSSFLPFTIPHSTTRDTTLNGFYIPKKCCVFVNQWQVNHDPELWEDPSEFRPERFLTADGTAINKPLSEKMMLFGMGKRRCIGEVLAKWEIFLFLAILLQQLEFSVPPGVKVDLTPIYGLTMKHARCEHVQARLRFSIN

Cytochrome P450 2C9 = Cytochrome P450 2C9 (Homo sapiens, UniProt P11712); experiment: Inhibition of CYP2C9 (unknown origin); type: ADME
Chain of Cytochrome P450 2C9 (P11712 whole entry): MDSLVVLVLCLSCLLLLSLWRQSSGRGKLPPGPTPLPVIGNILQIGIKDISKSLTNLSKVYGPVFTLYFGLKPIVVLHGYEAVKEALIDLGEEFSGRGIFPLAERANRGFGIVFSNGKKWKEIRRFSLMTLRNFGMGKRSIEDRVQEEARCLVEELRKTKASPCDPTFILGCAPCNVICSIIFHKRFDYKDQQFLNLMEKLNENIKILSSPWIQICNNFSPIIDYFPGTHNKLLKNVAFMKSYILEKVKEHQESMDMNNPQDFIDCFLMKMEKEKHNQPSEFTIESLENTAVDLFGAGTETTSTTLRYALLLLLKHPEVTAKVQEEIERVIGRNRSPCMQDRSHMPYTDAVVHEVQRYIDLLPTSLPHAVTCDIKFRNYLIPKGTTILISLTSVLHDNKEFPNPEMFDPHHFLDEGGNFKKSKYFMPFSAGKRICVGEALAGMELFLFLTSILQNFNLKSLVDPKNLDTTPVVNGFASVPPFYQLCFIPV

Cytochrome P450 2D6 = Cytochrome P450 2D6 (Homo sapiens, UniProt P10635); experiment: Inhibition of CYP2D6 (unknown origin); type: ADME
Chain of Cytochrome P450 2D6 (P10635 whole entry): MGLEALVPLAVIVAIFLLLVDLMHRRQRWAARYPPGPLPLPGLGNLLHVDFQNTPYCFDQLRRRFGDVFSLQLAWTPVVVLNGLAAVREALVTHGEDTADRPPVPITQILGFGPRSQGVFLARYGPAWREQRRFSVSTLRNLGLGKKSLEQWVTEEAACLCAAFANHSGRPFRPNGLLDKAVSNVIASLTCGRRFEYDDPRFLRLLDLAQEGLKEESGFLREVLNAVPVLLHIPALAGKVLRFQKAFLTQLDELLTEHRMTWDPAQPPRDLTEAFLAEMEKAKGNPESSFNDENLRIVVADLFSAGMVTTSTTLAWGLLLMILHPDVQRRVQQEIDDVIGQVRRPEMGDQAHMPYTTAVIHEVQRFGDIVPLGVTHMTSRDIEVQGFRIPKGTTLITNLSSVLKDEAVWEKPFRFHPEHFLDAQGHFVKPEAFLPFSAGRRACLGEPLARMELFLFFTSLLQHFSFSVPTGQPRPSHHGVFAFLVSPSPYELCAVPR

Cytochrome P450 3A4 = Cytochrome P450 3A4 (Homo sapiens, UniProt P08684); experiment: Inhibition of CYP3A4 (unknown origin); type: ADME
Chain of Cytochrome P450 3A4 (P08684 whole entry): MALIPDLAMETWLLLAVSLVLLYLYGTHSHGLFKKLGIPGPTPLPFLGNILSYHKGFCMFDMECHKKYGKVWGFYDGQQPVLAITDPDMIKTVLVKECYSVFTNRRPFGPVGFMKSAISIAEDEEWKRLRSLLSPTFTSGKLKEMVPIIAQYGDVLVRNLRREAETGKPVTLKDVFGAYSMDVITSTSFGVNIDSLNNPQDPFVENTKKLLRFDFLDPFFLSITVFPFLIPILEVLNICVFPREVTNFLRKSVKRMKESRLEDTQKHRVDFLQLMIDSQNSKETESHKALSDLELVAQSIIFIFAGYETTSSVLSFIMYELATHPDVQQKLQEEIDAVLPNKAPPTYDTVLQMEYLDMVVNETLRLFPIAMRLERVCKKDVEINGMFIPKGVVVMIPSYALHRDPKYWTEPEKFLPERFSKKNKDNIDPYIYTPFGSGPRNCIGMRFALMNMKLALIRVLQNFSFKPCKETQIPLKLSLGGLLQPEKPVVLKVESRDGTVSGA

Activin receptor type-1 = biological target: T2, Activin receptor type-1 (Homo sapiens, UniProt Q04771); experiment: Inhibition of human ALK2 by […] assay
T2 sequence (Q04771 whole entry): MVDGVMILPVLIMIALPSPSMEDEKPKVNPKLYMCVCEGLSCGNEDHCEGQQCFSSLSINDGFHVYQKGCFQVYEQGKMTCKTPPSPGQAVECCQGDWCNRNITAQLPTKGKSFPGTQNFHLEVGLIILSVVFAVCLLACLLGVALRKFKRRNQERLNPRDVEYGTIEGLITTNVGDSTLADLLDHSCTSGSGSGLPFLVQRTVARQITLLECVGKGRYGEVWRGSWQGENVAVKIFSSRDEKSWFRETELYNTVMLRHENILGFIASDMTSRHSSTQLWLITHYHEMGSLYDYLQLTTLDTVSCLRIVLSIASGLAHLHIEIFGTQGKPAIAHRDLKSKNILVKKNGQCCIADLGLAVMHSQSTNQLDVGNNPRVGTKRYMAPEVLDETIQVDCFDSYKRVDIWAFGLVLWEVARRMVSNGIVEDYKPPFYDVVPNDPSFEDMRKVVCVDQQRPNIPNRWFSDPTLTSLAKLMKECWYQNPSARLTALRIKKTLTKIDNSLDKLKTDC

[2] = Oral bioavailability in BALB/c mouse at 10 mg/kg; type: ADME, organism-based; settings: in vivo
[3] = Half life in BALB/c mouse at 10 mg/kg, po; type: ADME, organism-based; settings: in vivo
[4] = Total AUC in BALB/c mouse at 2 mg/kg, iv; type: ADME, organism-based; parameters: dose 2 mg/kg, route iv; settings: in vivo
Cytochrome P450 1A2 [5] = biological target: T3, Cytochrome P450 1A2 (Mus musculus, UniProt P00186); experiment: Inhibition of mouse CYP1A2; type: ADME
T3 sequence (P00186 whole entry): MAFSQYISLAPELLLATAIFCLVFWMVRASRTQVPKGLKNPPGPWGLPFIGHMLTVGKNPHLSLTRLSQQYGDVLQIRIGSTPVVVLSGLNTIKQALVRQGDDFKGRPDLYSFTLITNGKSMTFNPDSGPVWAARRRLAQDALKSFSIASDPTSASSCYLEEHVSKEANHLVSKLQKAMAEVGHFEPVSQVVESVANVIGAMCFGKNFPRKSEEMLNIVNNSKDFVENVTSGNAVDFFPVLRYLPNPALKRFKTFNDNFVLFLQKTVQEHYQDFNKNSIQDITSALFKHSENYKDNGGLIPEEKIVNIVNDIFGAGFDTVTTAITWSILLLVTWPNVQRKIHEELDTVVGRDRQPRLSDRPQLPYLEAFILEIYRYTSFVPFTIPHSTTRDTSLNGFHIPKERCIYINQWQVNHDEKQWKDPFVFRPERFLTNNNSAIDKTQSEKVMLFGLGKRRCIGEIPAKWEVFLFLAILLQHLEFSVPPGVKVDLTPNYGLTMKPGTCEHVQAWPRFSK

[6] = Inhibition of mouse CYP2D6; type: ADME
[7] = Inhibition of mouse CYP2C8; type: ADME
[8] = Half life in BALB/c mouse at 2 mg/kg, iv; type: ADME, organism-based; settings: in vivo
[9] = Inhibition of mouse CYP2C9; type: ADME
[10] = Inhibition of mouse CYP3A4; type: ADME
[11] = Cmax in BALB/c mouse at 10 mg/kg, po; type: ADME, organism-based; parameters: dose 10 mg/kg, route po; settings: in vivo
[12] = Volume of distribution in BALB/c mouse at 2 mg/kg, iv; type: ADME, organism-based; settings: in vivo
[13] = Stability of the compound in human plasma assessed as half life; type: ADME, cell-free
[14] = Stability of the compound in mouse plasma assessed as half life; type: ADME, cell-free
[15] = Tmax in BALB/c mouse at 10 mg/kg, po; type: ADME, organism-based; settings: in vivo
[16] = Clearance in BALB/c mouse at 2 mg/kg, iv; type: ADME, organism-based; settings: in vivo
[17] = Metabolic stability in human liver microsomes assessed as intrinsic clearance; type: ADME, Microsome; settings: read-out: CLH
[18] = Total AUC in BALB/c mouse at 10 mg/kg, po; type: ADME, organism-based; parameters: dose 10 mg/kg, route po; settings: in vivo
TGF-beta receptor type-1 [19] = biological target: T4, TGF-beta receptor type-1 (Homo sapiens, UniProt P36897); experiment: Inhibition of ALK5 in human Hs-578T cells assessed as effect of TGF-beta-induced […] phosphorylation; type: cell-based
T4 sequence (P36897 whole entry): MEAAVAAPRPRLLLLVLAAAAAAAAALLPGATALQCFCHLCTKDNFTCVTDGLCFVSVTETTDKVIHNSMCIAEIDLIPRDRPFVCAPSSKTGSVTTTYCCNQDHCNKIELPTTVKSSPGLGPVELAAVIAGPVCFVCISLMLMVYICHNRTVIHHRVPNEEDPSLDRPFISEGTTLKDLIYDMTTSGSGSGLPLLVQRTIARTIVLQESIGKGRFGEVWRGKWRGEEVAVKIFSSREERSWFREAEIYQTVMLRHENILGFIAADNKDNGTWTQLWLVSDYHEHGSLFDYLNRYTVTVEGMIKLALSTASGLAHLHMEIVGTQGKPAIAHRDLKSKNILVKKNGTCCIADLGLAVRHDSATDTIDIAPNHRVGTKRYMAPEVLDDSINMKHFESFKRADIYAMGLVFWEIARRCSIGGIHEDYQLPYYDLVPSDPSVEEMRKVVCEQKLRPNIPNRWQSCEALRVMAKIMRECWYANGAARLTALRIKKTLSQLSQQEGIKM

TGF-beta receptor type-1 [20] = biological target: T4, TGF-beta receptor type-1; experiment: Inhibition of human ALK5 by Kinase Glo luminescence assay

Chain of Cytochrome P450 2C19 (P33261 whole entry): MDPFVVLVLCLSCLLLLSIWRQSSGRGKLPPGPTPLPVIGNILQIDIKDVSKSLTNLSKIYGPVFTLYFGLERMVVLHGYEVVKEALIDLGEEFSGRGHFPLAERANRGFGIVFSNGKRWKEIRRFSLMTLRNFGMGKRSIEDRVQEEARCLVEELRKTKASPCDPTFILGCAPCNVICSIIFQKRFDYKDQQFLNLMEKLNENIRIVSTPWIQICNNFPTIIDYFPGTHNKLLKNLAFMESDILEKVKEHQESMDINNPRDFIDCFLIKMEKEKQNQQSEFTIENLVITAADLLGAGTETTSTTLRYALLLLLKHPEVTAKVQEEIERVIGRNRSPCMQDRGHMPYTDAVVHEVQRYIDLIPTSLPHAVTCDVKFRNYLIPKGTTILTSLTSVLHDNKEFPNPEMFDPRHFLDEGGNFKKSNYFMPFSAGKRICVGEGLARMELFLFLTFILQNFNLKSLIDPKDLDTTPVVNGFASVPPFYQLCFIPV

Row | Structure (SMILES) | IC50 (Cytochrome P450 2C19) [µM] | IC50 (Cytochrome P450 1A2 [1]) [µM] | IC50 (Cytochrome P450 2C9) [µM] | IC50 (Cytochrome P450 2D6) [µM] | IC50 (Cytochrome P450 3A4) [µM] | IC50 (Activin receptor type-1) [µM] | also measured
1 | Cc1cccc(-c2[nH]c(NCc3ccc(F)cc3F)nc2-c2ccc3[nH]ncc3c2)n1 | 3.3 | 8.7 | 0.5 | 5.8 | > 10 |  | 
2 | Cc1cccc(-c2[nH]c(NCc3ccc(Cl)c(Cl)c3)nc2-c2ccc3[nH]ncc3c2)n1 | > 10 | > 10 | > 10 | > 10 | > 10 |  | 
3 | Cc1cccc(-c2[nH]c(NCc3cccc(F)c3)nc2-c2ccc3[nH]ncc3c2)n1 | 8.6 | > 10 | 1.1 | 6.7 | > 10 | > 10 | 
4 | Cc1cccc(-c2[nH]c(NCc3cccc(F)c3F)nc2-c2ccc3[nH]ncc3c2)n1 | 4.3 | > 10 | 0.6 | 6.9 | > 10 |  | 
5 | Cc1cccc(-c2[nH]c(NCc3ccc(F)c(F)c3)nc2-c2ccc3[nH]ncc3c2)n1 | 4.3 | 8.6 | 0.4 | 4.1 | > 10 |  | 
6 | Cc1cccc(-c2[nH]c(NCc3ccccc3F)nc2-c2ccc3[nH]ncc3c2)n1 | 7.2 | > 10 | 1.4 | 8.8 | > 10 |  | 
7 | Cc1cccc(-c2[nH]c(NCc3ccc(Cl)cc3F)nc2-c2ccc3[nH]ncc3c2)n1 | 3.1 | 8.8 | 0.4 | 6.7 | 8.7 |  | 
8 | CCn1ncc2cc(-c3nc(NCc4cccc(F)c4)[nH]c3-c3cccc(C)n3)ccc21 |  |  |  |  |  | > 10 | 
9 | Cc1cccc(-c2[nH]c(NCc3cccc(Cl)c3F)nc2-c2ccc3[nH]ncc3c2)n1 | 3.6 | > 10 | 0.5 | 4.8 | 8 |  | 
10 | [2H]C([2H])([2H])n1ncc2cc(-c3nc(NCc4cccc(F)c4)[nH]c3-c3cccc(C)n3)ccc21 |  |  |  |  |  |  | bioavailability [2]: 67.6%; half-life [3]: 1.6 h; AUC [4]: 1170 ng·h/mL; IC50 (Cytochrome P450 1A2 [5]): 67 µM; IC50 [6]: 20.5 µM; IC50 [7]: 38.7 µM; half-life [8]: 1.5 h; IC50 [9]: 22.1 µM; IC50 [10]: 16 µM; Cmax [11]: 1720 ng/mL; Vd [12]: 3.8 L/kg; half-life [13]: > 2 h; half-life [14]: > 2 h; Tmax [15]: 0.4 h; clearance [16]: 29 mL/min/kg; microsomal CLint [17]: 23.1 µL/min/mg; AUC [18]: 3940 ng·h/mL
11 | Cc1cccc(-c2[nH]c(NCc3cccc(F)c3)nc2-c2ccc3c(cnn3C)c2)n1 | > 10 | > 10 | > 10 | > 10 | > 10 | > 10 | bioavailability [2]: 69.6%; half-life [3]: 1.6 h; AUC [4]: 870 ng·h/mL; IC50 (Cytochrome P450 1A2 [5]): 71.5 µM; IC50 [6]: 26.2 µM; IC50 [7]: 34.1 µM; half-life [8]: 1.6 h; IC50 [9]: 27.8 µM; IC50 [10]: 20.5 µM; Cmax [11]: 1530 ng/mL; Vd [12]: 5.1 L/kg; half-life [13]: > 2 h; half-life [14]: > 2 h; Tmax [15]: 0.4 h; clearance [16]: 38.4 mL/min/kg; microsomal CLint [17]: 29.8 µL/min/mg; AUC [18]: 3030 ng·h/mL
12 | Cc1cccc(-c2[nH]c(NCc3cccc(F)c3)nc2-c2ccc3c(cnn3S(C)(=O)=O)c2)n1 | > 10 | 9.4 | > 10 | > 10 | > 10 | > 10 | IC50 (TGF-beta receptor type-1 [19]): > 0.3 µM
13 | Cc1cccc(-c2[nH]c(NCc3ccccc3F)nc2-c2ccc3[nH]ccc3c2)n1 |  |  |  |  |  |  | IC50 (TGF-beta receptor type-1 [20]): > 10 µM; IC50 (TGF-beta receptor type-1 [19]): > 0.3 µM
14 | Cc1cccc(-c2[nH]c(NCc3cccc(F)c3)nc2-c2ccc3c(cnn3C(F)F)c2)n1 | > 10 | 8.5 | > 10 | > 10 | > 10 | > 10 | 
